# Test results from PMC11749085, “Paeoniflorin relieves arterial stiffness induced by a high-fat/high-sugar diet by disrupting the YAP-PPM1B interaction” (Life Medicine, 2023).
# pIC50, pKd: −log10 of the molar value.
# What was measured:
# [1] = target: T1, LgBiT-YAP-CC / SmBiT-PPM1B (Homo sapiens, UniProt P46937); assay: NanoBiT split-luciferase protein-protein interaction assay in HeLa cells; type: cell-based
# T1 construct: gene YAP1; with Protein phosphatase 1B
# YAP-CC domain = target: T2, YAP-CC domain (Homo sapiens, UniProt P46937); assay: biolayer interferometry; type: binding; conditions: read-out: affinity
# T2 construct: gene YAP1
# T2 sequence (P46937 298-328): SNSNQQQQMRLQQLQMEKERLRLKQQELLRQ
# From the text: biolayer interferometry on YAP-CC domain | a binding between paeoniflorin and the YAP-CC domain with an affinity of […]
# T1 sequence (P46937 298-328): as above
# T1 sequence (O75688 2-479 partner): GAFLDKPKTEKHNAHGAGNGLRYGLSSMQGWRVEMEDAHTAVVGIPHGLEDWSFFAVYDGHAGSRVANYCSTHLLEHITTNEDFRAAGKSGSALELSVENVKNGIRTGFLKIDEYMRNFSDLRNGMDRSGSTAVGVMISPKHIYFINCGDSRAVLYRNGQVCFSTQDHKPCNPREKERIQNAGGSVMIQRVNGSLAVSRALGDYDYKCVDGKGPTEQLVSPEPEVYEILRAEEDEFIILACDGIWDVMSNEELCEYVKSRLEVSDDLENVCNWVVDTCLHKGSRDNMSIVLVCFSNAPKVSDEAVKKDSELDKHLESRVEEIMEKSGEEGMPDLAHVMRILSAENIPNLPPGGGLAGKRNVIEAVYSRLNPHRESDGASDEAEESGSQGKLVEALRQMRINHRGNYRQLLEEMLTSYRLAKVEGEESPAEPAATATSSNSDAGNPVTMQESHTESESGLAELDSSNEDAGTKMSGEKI
smiles,measurement,setting,value
C[C@@]12C[C@@]3(O)O[C@@H](O1)[C@]1(COC(=O)c4ccccc4)[C@H]3C[C@@]12O[C@@H]1O[C@H](CO)[C@@H](O)[C@H](O)[C@H]1O [paeoniflorin],pIC50,[1],5.32
same,pKd,YAP-CC domain,4.39
